Measurements reported in patent US20160311791A1, “NOVEL TRICYCLIC CALCIUM SENSING RECEPTOR ANTOGONISTS FOR THE TREATMENT OF OSTEOPOSOSIS” (MERCK SHARP & DOHME CORP., priority 2013, published 2016).

Biological target: T1, human CaSR (Homo sapiens, UniProt P41180)
T1 sequence (P41180 20-1078): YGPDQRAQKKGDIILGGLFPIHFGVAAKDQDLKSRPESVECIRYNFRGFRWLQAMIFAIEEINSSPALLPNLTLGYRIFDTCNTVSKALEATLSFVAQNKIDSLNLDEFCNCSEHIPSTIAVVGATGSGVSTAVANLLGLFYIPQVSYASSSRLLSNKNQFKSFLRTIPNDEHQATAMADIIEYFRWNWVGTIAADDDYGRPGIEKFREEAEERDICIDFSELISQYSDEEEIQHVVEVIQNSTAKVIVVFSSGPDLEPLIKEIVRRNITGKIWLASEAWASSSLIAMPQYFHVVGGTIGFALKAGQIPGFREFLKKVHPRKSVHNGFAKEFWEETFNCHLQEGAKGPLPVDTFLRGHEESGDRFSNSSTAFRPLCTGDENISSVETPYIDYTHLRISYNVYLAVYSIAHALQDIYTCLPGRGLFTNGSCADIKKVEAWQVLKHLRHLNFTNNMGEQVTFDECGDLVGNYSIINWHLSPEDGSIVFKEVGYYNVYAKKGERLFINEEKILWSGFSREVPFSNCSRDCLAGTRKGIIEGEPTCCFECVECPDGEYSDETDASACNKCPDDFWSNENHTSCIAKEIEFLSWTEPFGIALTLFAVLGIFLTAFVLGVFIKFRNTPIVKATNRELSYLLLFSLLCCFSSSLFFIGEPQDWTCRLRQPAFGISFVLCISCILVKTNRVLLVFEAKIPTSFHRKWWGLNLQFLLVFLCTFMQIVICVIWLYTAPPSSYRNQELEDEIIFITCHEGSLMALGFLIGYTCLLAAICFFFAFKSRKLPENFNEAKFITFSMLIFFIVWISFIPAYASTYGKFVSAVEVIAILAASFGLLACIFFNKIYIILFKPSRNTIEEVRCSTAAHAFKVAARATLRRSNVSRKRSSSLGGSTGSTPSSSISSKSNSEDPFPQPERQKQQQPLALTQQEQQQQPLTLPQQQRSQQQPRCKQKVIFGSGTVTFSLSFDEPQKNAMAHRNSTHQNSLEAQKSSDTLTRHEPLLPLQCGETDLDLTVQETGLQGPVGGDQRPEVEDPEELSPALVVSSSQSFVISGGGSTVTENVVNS
Assay: CaSR FLIPR assay (calcilytic activity)
Format: cell-based
Set-up: expressed in transfected cells
Conditions: HEK293 cells stably expressing human recombinant CaSR; 1 mM CaCl2 agonist; Tables 1-24; read-out: FLIPR ASSAY IC50
Protocol: Procedures for CaSR FLIPR Assay
Calcilytic activity of the compound is measured in HEK293 cells stably expressing human recombinant CaSR (HEK-CaSR) using a FLIPR^TETRA device (Molecular Devices, Sunnyvale, Calif.) according to the manufacturer's directions. […] On the day of the assay, one vial of FLIPR Calcium 4 Assay Kit reagent Component A was equilibrated to room temperature. The content of the Component A vial was diluted by adding 10 ml dilution buffer (2×loading dye). The sample was mixed by vortexing (1-2 minutes) until the contents of the vial dissolved. The Component A vial mixture was diluted with 10 ml dilution buffer. Media was aspirated from the cells and 80 μl of loading buffer was added to each well. Plates were incubated for 1 hour at 37° C. and then placed at room temperature for 10 minutes. A two-stage method of generating 10-point serial dilutions was used. Compound was serially diluted in 100% DMSO (10 point, 3-fold dilution of each compound from 2 mM in 100% DMSO). 3 μl of serially diluted compound was transferred into a second assay microplate that contained 97 μl of TETRA dilution buffer (20 mM HEPES pH7.4, 1×HBSS without Ca and Mg, 0.4 mM CaCl2, 0.4 mM MgSO4, 0.5 mM MgCl2) to create the intermediate dilution plate. After reading the base line, the compounds in 0.5% DMSO in dilution buffer were added to their respective wells as 20 μl aliquots at 6×the final drug concentration. The fluorescence signals were then read. Subsequently, 20 μl of 3.6 mM of CaCl2 agonist (1 mM final concentration) was added to each well. For background, 20 μl of TETRA dilution buffer was added instead. The protocol consisted of a pre-addition read of 10 frames (10×1 frame/sec), a post 1st addition read of 100 frames (60×1 frame/sec, 40×1 frame/3 sec), pause 3 min, a post 2nd addition read of 100 frames (60×1 frame/sec, 40×1 frame/3 sec) on a FLIPR^TETRA Plate Reader.

Compound	IC50
Cc1ccc([C@@H](C)OC[C@H](O)CNC(C)(C)Cc2ccc3ccccc3c2)c2c1O[C@H]1[C@H](C(=O)O)[C@@H]21 [Example 9-1]	0.022 µM
CC(OC[C@H](O)CNC(C)(C)Cc1ccc2ccccc2c1)c1cccc2c1C1C(S2)C1C(=O)O (stereo partly drawn) [Example 23-1]	0.042 µM
Cc1ccc(C(C)OC[C@H](O)CNC(C)(C)Cc2ccc3ccccc3c2)c2c1OC(C)(C)C1C(C(=O)O)C21 (stereo partly drawn) [Example 24-1]	0.106 µM
C[C@@H](OC[C@H](O)CNC(C)(C)Cc1ccc2ccccc2c1)c1ccc(Cl)c2c1C1C(O2)C1C(=O)O (stereo partly drawn) [Example 18-1]	0.04 µM
C[C@@H](OC[C@H](O)CNC(C)(C)Cc1ccc(F)c(F)c1)c1cccc2c1O[C@@H]1[C@@H](C(=O)O)[C@H]21 [Example 1-15]	1.27 µM
Cc1ccc([C@@H](C)OC[C@H](O)CNC(C)(C)CSCc2ccccc2)c2c1O[C@@H]1[C@@H](C(=O)O)[C@H]21 [Example 8-29]	0.5 µM
C[C@@H](OC[C@H](O)CNC(C)(C)CCCc1ccccc1)c1cccc2c1O[C@@H]1[C@@H](C(=O)O)[C@H]21 [Example 1-14]	0.038 µM
CSc1ccc(CC(C)(C)NC[C@@H](O)CO[C@H](C)c2ccc(C)c3c2[C@@H]2[C@H](O3)[C@H]2C(=O)O)cc1C [Example 8-34]	0.082 µM
CSc1ccc(CC(C)(C)NC[C@@H](O)CO[C@H](C)c2cccc3c2O[C@H]2[C@H](C(=O)O)[C@@H]32)cc1F [Example 2-9]	0.83 µM
CSc1ccc(CC(C)(C)NC[C@@H](O)CO[C@H](C)c2cccc3c2[C@@H]2[C@H](O3)[C@H]2C(=O)O)cc1F [Example 5-14]	0.027 µM
Cc1ccc([C@@H](C)OC[C@H](O)CNC(C)(C)Cc2cc(F)c(F)cc2F)c2c1O[C@@H]1[C@@H](C(=O)O)[C@H]21 [Example 8-21]	0.099 µM
C[C@@H](OC[C@H](O)CNC(C)(C)Cc1ccc2ccccc2c1)c1cc(Cl)cc2c1O[C@@H]1[C@@H](C(=O)O)[C@H]21 [Example 20-1]	0.02 µM
Cc1ccc([C@@H](C)OC[C@H](O)CNC(C)(C)CCCc2ccccc2)c2c1O[C@@H]1[C@@H](C(=O)O)[C@H]21 [Example 8-16]	0.029 µM
C[C@@H](OC[C@H](O)CNC(C)(C)Cc1ccc2c(c1)OCO2)c1cccc2c1O[C@@H]1[C@@H](C(=O)O)[C@H]21 [Example 1-8]	0.32 µM
CSc1ccc(CC(C)(C)NC[C@@H](O)CO[C@H](C)c2c(Cl)cc(C)c3c2[C@@H]2[C@H](O3)[C@H]2C(=O)O)cc1F [Example 16-6]	0.017 µM
COc1ccc(CC(C)(C)NC[C@@H](O)CO[C@H](C)c2cccc3c2[C@@H]2[C@H](O3)[C@H]2C(=O)O)c(F)c1 [Example 5-11]	0.108 µM
C[C@@H](OC[C@H](O)CNC(C)(C)Cc1ccc(Cl)c(F)c1)c1cccc2c1O[C@H]1[C@H](C(=O)O)[C@@H]21 [Example 2-2]	0.148 µM
Cc1ccc([C@@H](C)OC[C@H](O)CNC(C)(C)Cc2ccc3ccccc3c2)c2c1O[C@@H]1[C@@H](C(=O)O)[C@H]21 [Example 8-1]	0.014 µM
Cc1ccc([C@@H](C)OC[C@H](O)CNC(C)(C)Cc2cccc3ccccc23)c2c1O[C@@H]1[C@@H](C(=O)O)[C@H]21 [Example 8-9]	0.119 µM
C[C@@H](OC[C@H](O)CNC(C)(C)Cc1ccc(Cl)c(F)c1)c1cccc2c1O[C@@H]1[C@@H](C(=O)O)[C@H]21 [Example 1-2]	0.148 µM
C[C@@H](OC[C@H](O)CNC(C)(C)Cc1ccc([S+](C)[O-])cc1)c1cccc2c1O[C@@H]1[C@@H](C(=O)O)[C@H]21 (stereo partly drawn) [Example 1-16]	> 10 µM

Compound	IC50
Cc1ccc(CC(C)(C)NC[C@@H](O)CO[C@H](C)c2ccc(C)c3c2[C@H]2[C@@H](O3)[C@@H]2C(=O)O)cc1F [Example 9-4]	0.068 µM
CSc1ccc(CC(C)(C)NC[C@@H](O)CO[C@H](C)c2ccc(C)c3c2C2[C@H](O3)[C@H]2C(=O)O)cc1 (stereo partly drawn) [Example 8-23]	0.04 µM
Cc1ccc([C@@H](C)OC[C@H](O)CNC(C)(C)Cc2ccc3c(c2)CCC3)c2c1O[C@H]1[C@H](C(=O)O)[C@@H]21 [Example 9-6]	0.053 µM
Cc1ccc(CC(C)(C)NC[C@@H](O)CO[C@H](C)c2ccc(C)c3c2C2[C@H](O3)[C@H]2C(=O)O)cc1C (stereo partly drawn) [Example 8-5]	0.018 µM
CSc1ccc(CC(C)(C)NC[C@@H](O)CO[C@H](C)c2cccc3c2[C@@H]2[C@H](O3)[C@H]2C(=O)O)cc1C [Example 5-19]	0.097 µM
Cc1ccc([C@@H](C)OC[C@H](O)CNC(C)(C)Cc2ccc3c(c2)CCS3)c2c1O[C@@H]1[C@@H](C(=O)O)[C@H]21 [Example 8-26]	0.021 µM
COc1ccc(CC(C)(C)NC[C@@H](O)CO[C@H](C)c2ccc(C)c3c2[C@@H]2[C@H](O3)[C@H]2C(=O)O)c(Cl)c1 [Example 8-28]	0.022 µM
C[C@@H](OC[C@H](O)CNC(C)(C)Cc1ccc2occc2c1)c1cccc2c1O[C@@H]1[C@@H](C(=O)O)[C@H]21 [Example 1-6]	0.049 µM
C[C@@H](OC[C@H](O)CNC(C)(C)Cc1ccc2sccc2c1)c1cccc2c1O[C@@H]1[C@@H](C(=O)O)[C@H]21 [Example 1-9]	0.027 µM
CCOC(=O)[C@@H]1[C@H]2Oc3c(C)ccc([C@@H](C)OC[C@H](O)CNC(C)(C)Cc4ccc(SC)c(F)c4)c3[C@H]21 [Example 12-1]	0.13 µM
Cc1ccc([C@@H](C)OC[C@H](O)CNC(C)(C)Cc2ccc3c(c2)OCO3)c2c1O[C@@H]1[C@@H](C(=O)O)[C@H]21 [Example 8-11]	0.05 µM
C[C@@H](OC[C@H](O)CNC(C)(C)Cc1ccc2ccccc2c1)c1cccc2c1[C@@H]1[C@H](C2)[C@H]1C(=O)O [Example 13-1]	0.028 µM
CCOC(=O)[C@@H]1[C@H]2Oc3cccc([C@@H](C)OC[C@H](O)CNC(C)(C)Cc4ccc5ccccc5c4)c3[C@H]21 [Example 5-20]	0.13 µM
COc1ccc(CC(C)(C)NC[C@@H](O)CO[C@H](C)c2ccc(C)c3c2[C@H]2[C@@H](O3)[C@@H]2C(=O)O)cc1F [Example 9-5]	0.224 µM
CSc1ccc(CC(C)(C)NC[C@@H](O)CO[C@H](C)c2cccc3c2[C@@H]2[C@H](O3)[C@H]2C(=O)O)cc1Cl [Example 5-18]	0.053 µM
Cc1cc(Cl)c([C@@H](C)OC[C@H](O)CNC(C)(C)Cc2ccc3ccccc3c2)c2c1O[C@@H]1[C@@H](C(=O)O)[C@H]21 [Example 16-1]	0.009 µM
Cc1ccc([C@@H](C)OC[C@H](O)CNC2(Cc3ccc4ccccc4c3)CC2)c2c1O[C@H]1[C@H](C(=O)O)[C@@H]21 [Example 9-7]	0.187 µM
C[C@@H](OC[C@H](O)CNC(C)(C)Cc1ccc2occc2c1)c1cccc2c1[C@@H]1[C@H](C2)[C@H]1C(=O)O [Example 13-2]	0.047 µM
Cc1ccc([C@@H](C)OC[C@H](O)CNC(C)(C)CCOc2ccccc2)c2c1O[C@@H]1[C@@H](C(=O)O)[C@H]21 [Example 8-17]	0.09 µM
C[C@@H](OC[C@H](O)CNC(C)(C)Cc1ccc2c(c1)OCCO2)c1cccc2c1[C@@H]1[C@H](O2)[C@H]1C(=O)O [Example 5-10]	0.153 µM
C[C@@H](OC[C@H](O)CNC(C)(C)Cc1ccc2sccc2c1)c1cccc2c1[C@@H]1[C@H](C2)[C@H]1C(=O)O [Example 13-4]	0.036 µM
